Here are results for 38 compounds from US20240150377A1, “MODULATORS OF CYSTIC FIBROSIS TRANSMEMBRANE CONDUCTANCE REGULATOR” (VERTEX PHARMACEUTICALS INCORPORATED, priority 2020, published 2024).

Read-outs that look alike come from different tables or passages of the source. A value given as a limit tells only on which side of the number the result lay.

The test addresses T1, CFTR (Homo sapiens, UniProt P13569, DEL508-508).
T1 construct: endogenous in cells; host or cells: primary human bronchial epithelial cells from CF subjects (F508del/MF-HBE), differentiated at air-liquid interface
As to the kind of experiment: HBE assay: Ussing chamber assay of CFTR-mediated short-circuit currents. The note with it: for EC50: read-out: HBE EC50. The class given is cell-based. Summed up: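 CFTR-mediated Isc (μA/cm²) equals the peak response to apical 20 μM forskolin minus the residual after a 20 μM each BPO/GlyH-101/CFTR inhibitor 172 cocktail, recorded in Ussing chambers at Vhold 0 mV, 37 °C, pH 7.4, with 30 μM apical amiloride. Cells were F508del/MF HBE cultures preincubated 18-24 h with corrector (concentration range or 10 μM) plus 1 μM ivacaftor in 20% human serum.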

Where [1] appears, read: Table 12, read-out: HBE Max Activity (%).
Where [2] appears, read: Table 10, read-out: HBE Max activity (%).
Setting [3] is: HBE assay, read-out: HBE Max activity (%).
The mark [4] stands for this setting: Table 13, read-out: HBE Max Activity (%).
The mark [5] stands for this setting: Table 11, read-out: HBE Max Activity (%).
[6] abbreviates: Table 13, at 10 μM, read-out: HBE Activity at 10 μM (%).
Where [7] appears, read: Table 10, at 10 μM, read-out: HBE activity at 10 (μM) (%).
Setting [8] is: HBE assay, 10 μM, read-out: HBE Activity at 10 μM (%).

T1 sequence (P13569 with tags, fused parts or gaps DEL508-508): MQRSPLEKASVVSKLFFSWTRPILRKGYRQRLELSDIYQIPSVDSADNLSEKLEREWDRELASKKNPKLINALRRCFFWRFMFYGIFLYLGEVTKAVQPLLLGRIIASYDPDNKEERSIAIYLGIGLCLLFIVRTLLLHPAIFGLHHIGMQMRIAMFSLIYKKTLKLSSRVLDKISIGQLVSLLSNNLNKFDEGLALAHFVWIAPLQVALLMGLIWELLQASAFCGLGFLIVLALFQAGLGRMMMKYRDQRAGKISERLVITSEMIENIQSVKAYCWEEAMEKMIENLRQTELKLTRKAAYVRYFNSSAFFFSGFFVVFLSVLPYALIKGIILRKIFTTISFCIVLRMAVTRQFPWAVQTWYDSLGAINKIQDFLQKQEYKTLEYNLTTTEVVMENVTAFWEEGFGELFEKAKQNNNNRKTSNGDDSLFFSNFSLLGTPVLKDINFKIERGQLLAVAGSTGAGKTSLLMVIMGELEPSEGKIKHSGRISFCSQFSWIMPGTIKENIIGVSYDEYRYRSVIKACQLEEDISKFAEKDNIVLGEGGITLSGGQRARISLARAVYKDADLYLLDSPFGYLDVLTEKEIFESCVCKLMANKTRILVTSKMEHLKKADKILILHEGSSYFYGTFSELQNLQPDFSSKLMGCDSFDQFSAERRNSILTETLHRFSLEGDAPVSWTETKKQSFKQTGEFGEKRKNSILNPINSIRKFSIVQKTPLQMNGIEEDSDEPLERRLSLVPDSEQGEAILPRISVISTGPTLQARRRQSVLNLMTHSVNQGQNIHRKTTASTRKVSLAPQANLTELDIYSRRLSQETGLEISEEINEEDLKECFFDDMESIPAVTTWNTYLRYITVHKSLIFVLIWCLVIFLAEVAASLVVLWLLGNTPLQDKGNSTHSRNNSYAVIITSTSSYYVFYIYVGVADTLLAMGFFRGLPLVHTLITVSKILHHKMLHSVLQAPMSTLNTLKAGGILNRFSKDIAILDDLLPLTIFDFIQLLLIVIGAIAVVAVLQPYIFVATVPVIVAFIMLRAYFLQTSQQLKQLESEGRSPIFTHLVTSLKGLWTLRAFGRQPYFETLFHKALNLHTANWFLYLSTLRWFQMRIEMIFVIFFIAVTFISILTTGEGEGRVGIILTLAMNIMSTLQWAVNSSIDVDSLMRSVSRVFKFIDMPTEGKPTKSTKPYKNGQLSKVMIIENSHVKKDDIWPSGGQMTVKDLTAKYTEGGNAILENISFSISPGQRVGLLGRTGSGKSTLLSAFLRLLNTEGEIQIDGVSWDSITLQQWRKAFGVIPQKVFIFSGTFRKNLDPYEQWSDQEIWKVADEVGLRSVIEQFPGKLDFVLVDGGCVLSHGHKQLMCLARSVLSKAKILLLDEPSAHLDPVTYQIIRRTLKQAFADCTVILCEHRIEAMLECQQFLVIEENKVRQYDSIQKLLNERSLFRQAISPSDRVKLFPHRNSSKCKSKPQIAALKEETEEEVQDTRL

For `COC[C@@H]1CCCN1c1cnc(CN2C(=O)c3cccc(c3)S(=O)(=O)Nc3nc(cc(-c4c(C)cccc4C)n3)OC[C@H]2CC(C)(C)C)nc1` [Compound 571], where the note is “Table 12”, the EC50 (commonly the midpoint of the concentration-response curve) is less than 1000 nM. For the same compound, the Emax under setting [1] was more than 60%. On to `Cc1cccc(C)c1-c1cc2nc(n1)NS(=O)(=O)c1cccc(c1)C(=O)N(Cc1ccc(C3CCCCC3)cn1)[C@H](CC(C)(C)C)CO2` [Compound 50, (11R)-12-[(5-Cyclohexyl-2-pyridyl)methyl]-6-(2,6-dimethylphenyl)-11-(2,2-dimethylpropyl)-2,2-dioxo-9-oxa-2λ^6-thia-3,5,12,19-tetrazatricyclo[12.3.1.14,8]nonadeca-1(18),4(19),5,7,14,16-hexaen-13-one], for which the EC50 (Table 10) lay within 1000 to 3000 nM. The Emax under setting [2] was more than 60%.

`COc1ncc(-c2ccc(CN3C(=O)c4cccc(c4)S(=O)(=O)Nc4nc(cc(-c5c(C)cccc5C)n4)OC[C@H]3CC(C)(C)C)cc2)cn1` [Compound 783]: the EC50 (Table 10) was less than 1000 nM. The Emax under setting [2] is more than 60%. As for `Cc1cccc(C)c1-c1cc2nc(n1)NS(=O)(=O)c1cccc(c1)C(=O)N(Cc1cccc(N(C)C3CCOC3)n1)[C@H](CC(C)(C)C)CO2` (stereo partly drawn) [Compound 1347], the EC50 (HBE assay) is less than 1000 nM. The Emax under setting [3] was more than 60%. `Cc1cccc(C)c1-c1cc2nc(n1)NS(=O)(=O)c1cccc(c1)C(=O)N(Cc1ncc(OCC(F)(F)F)cn1)[C@H](CC(C)(C)C)CO2` [Compound 1431]: the EC50 (HBE assay) was less than 1000 nM. Also, the Emax under setting [3] was more than 60%.

In the case of `Cc1cccc(C)c1-c1cc2nc(n1)NS(=O)(=O)c1cccc(c1)C(=O)N(Cc1ncc(OC(C)C)cc1Cl)[C@H](CC(C)(C)C)CO2` [Compound 691], for the setting “Table 13”, the EC50 was less than 1000 nM. The Emax under setting [4] was more than 60%. For the compound `Cc1cccc(C)c1-c1cc2nc(n1)NS(=O)(=O)c1cccc(c1)C(=O)N(Cc1ccccn1)[C@H](CC(C)(C)C)CO2` [Compound 381], the Emax under setting [2] was more than 60%. `Cc1cccc(C)c1-c1cc2nc(n1)NS(=O)(=O)c1cccc(c1)C(=O)N(Cc1ncc(N(C)C3CC4(CC4)C3)cn1)[C@H](CC(C)(C)C)CO2` [Compound 575]: the EC50 (Table 12) was less than 1000 nM. Further, the Emax under setting [1] was more than 60%. For the compound `COC[C@H]1CCN(c2cnc(CN3C(=O)c4cccc(c4)S(=O)(=O)Nc4nc(cc(-c5c(C)cccc5C)n4)OC[C@H]3CC(C)(C)C)nc2)C1` [Compound 1439], for the setting “HBE assay”, the EC50 is less than 1000 nM. Besides, the Emax under setting [3] is more than 60%.

Take `CCC(C)Oc1cnc(CN2C(=O)c3cccc(c3)S(=O)(=O)Nc3nc(cc(-c4c(C)cccc4C)n3)OC[C@H]2CC(C)C)nc1` (stereo in doubt) [Compound 1395]: the EC50 (HBE assay) is less than 1000 nM. Moreover, the Emax under setting [3] was more than 60%. Take `CC(C)=Cc1cccc(CN2C(=O)c3cccc(c3)S(=O)(=O)Nc3nc(cc(-c4c(C)cccc4C)n3)OC[C@H]2CC(C)(C)C)n1` [Compound 589]: the EC50 (Table 12) is less than 1000 nM. Under setting [1], the Emax is more than 60%. Take `Cc1cccc(C)c1-c1cc2nc(n1)NS(=O)(=O)c1cccc(c1)C(=O)N(Cc1ccc(C3CC4(COC4)C3)cn1)[C@H](CC(C)(C)C)CO2` [Compound 164]: the EC50 (Table 13) was less than 1000 nM. For the same compound, under setting [4], the Emax is more than 60%. Turning to `Cc1cccc(C)c1-c1cc2nc(n1)NS(=O)(=O)c1cccc(c1)C(=O)N(Cc1cccc(OC(C)C)n1)[C@H](CC(C)(C)C)CO2` [Compound 370], under “Table 13”, the EC50 was less than 1000 nM. For the same compound, the Emax under setting [4] was more than 60%. For the compound `Cc1cccc(C)c1-c1cc2nc(n1)NS(=O)(=O)c1cccc(c1)C(=O)N(Cc1cnc(C(C)C)cn1)[C@H](CC(C)(C)C)CO2` [Compound 893], the EC50 (Table 11) was less than 1000 nM. Further, under setting [5], the Emax was more than 60%. Take `Cc1cccc(C)c1-c1cc2nc(n1)NS(=O)(=O)c1cccc(c1)C(=O)N(CC(=O)N1CCN(C(C)C)CC1)[C@H](CC(C)(C)C)CO2` [Compound 187]: the activation at 10 µM under setting [6] was more than 600%. In the case of `Cc1cccc(C)c1-c1cc2nc(n1)NS(=O)(=O)c1cccc(c1)C(=O)N(Cc1ccnn1C)[C@H](CC(C)(C)C)CO2` [Compound 827], under setting [7], the activation at 10 µM was more than 60%. For the compound `Cc1cccc(C)c1-c1cc2nc(n1)NS(=O)(=O)c1cccc(c1)C(=O)N(Cc1cccc(C3=CCCC3)n1)[C@H](CC(C)(C)C)CO2` [Compound 621], for the setting “Table 11”, the EC50 was less than 1000 nM. In addition, the Emax under setting [5] was more than 60%. With `Cc1cccc(C)c1-c1cc2nc(n1)NS(=O)(=O)c1cccc(c1)C(=O)N(Cc1cccc(C(C)(C)C)n1)[C@H](CC(C)(C)C)CO2` [Compound 731], the EC50 (Table 11) is less than 1000 nM. For the same compound, under setting [5], the Emax was more than 60%. Take `Cc1cccc(C)c1-c1cc2nc(n1)NS(=O)(=O)c1cccc(c1)C(=O)N(Cc1c(C)n[nH]c1C)[C@H](CC(C)(C)C)CO2` [Compound 485]: the activation at 10 µM under setting [7] was more than 60%.

Turning to `Cc1cccc(C)c1-c1cc2nc(n1)NS(=O)(=O)c1cccc(c1)C(=O)N(Cc1cncc(N(C)C3CCC34CCC4)n1)[C@H](CC(C)(C)C)CO2` (stereo partly drawn) [Compound 437], the EC50 (Table 12) was less than 1000 nM. In addition, the Emax under setting [1] was more than 60%. Regarding `COCCN(C)c1ccnc(CN2C(=O)c3cccc(c3)S(=O)(=O)Nc3nc(cc(-c4c(C)cccc4C)n3)OC[C@H]2CC(C)(C)C)c1` [Compound 887], the EC50 (Table 11) was less than 1000 nM. Further, the Emax under setting [5] is more than 60%. Take `Cc1cccc(C)c1-c1cc2nc(n1)NS(=O)(=O)c1cccc(c1)C(=O)N(Cc1ncc(N(C)C(C)C)cn1)[C@H](CC(C)(C)C)CO2` [Compound 633]: where the note is “Table 11”, the EC50 lay in the range of 1000 to 3000 nM. Under setting [5], the Emax is more than 60%. Regarding `Cc1cccc(C)c1-c1cc2nc(n1)NS(=O)(=O)c1cccc(c1)C(=O)N(CC(=O)N1CCOCC1)[C@H](CC(C)(C)C)CO2` [Compound 197], the activation at 10 µM under setting [6] was more than 600%. With `Cc1cccc(C)c1-c1cc2nc(n1)NS(=O)(=O)c1cccc(c1)C(=O)N(Cc1ncc(N3CC(C)(F)C3)cn1)[C@H](CC(C)(C)C)CO2` [Compound 1503], under setting [8], the activation at 10 µM is more than 60%. For the same compound, for the setting “HBE assay”, the EC50 is less than 1000 nM. Further, the Emax under setting [3] is more than 60%. For the compound `Cc1cccc(C)c1-c1cc2nc(n1)NS(=O)(=O)c1cccc(c1)C(=O)N(Cc1ccccc1-c1c[nH]nc1C)[C@H](CC(C)(C)C)CO2` [Compound 307], the activation at 10 µM under setting [7] is more than 60%. As for `Cc1cccc(C)c1-c1cc2nc(n1)NS(=O)(=O)c1cccc(c1)C(=O)N(CC(=O)N1CCC(N(C)C)CC1)[C@H](CC(C)(C)C)CO2` [Compound 186], the activation at 10 µM under setting [6] was more than 600%. Turning to `Cc1ccc(CN2C(=O)c3cccc(c3)S(=O)(=O)Nc3nc(cc(-c4c(C)cccc4C)n3)OC[C@H]2CC(C)(C)C)nc1` [Compound 500], where the note is “Table 10”, the EC50 is less than 1000 nM. Also, the Emax under setting [2] is more than 60%. Turning to `Cc1cccc(C)c1-c1cc2nc(n1)NS(=O)(=O)c1cccc(c1)C(=O)N(Cc1ncc(N3CC[C@H]3C)cn1)[C@H](CC(C)(C)C)CO2` (stereo in doubt) [Compound 1406], the EC50 (HBE assay) was less than 1000 nM. With `Cc1cccc(C)c1-c1cc2nc(n1)NS(=O)(=O)c1cccc(c1)C(=O)N(Cc1nc(C(C)(C)C)cs1)[C@H](CC(C)(C)C)CO2` [Compound 702], the activation at 10 µM (Table 12, at 10 μM, read-out: HBE Activity at 10 μM (%)) was more than 600%. Regarding `Cc1cccc(C)c1-c1cc2nc(n1)NS(=O)(=O)c1cccc(c1)C(=O)N(Cc1ccc3c(C4CC4)cn(C)c3n1)[C@H](CC(C)(C)C)CO2` [Compound 1303, (11R)-12-[(3-Cyclopropyl-1-methyl-pyrrolo[2,3-b]pyridin-6-yl)methyl]-6-(2,6-dimethylphenyl)-11-(2,2-dimethylpropyl)-2,2-dioxo-9-oxa-2λ^6-thia-3,5,12,19-tetrazatricyclo[12.3.1.14,8]nonadeca-1(18),4(19),5,7,14,16-hexaen-13-one], under setting [8], the activation at 10 µM is more than 60%.

Take `Cc1cccc(C)c1-c1cc2nc(n1)NS(=O)(=O)c1cccc(c1)C(=O)N(Cc1cccc(N3CCCC3C(C)C)n1)[C@H](CC(C)(C)C)CO2` (stereo partly drawn) [Compound 548]: the EC50 (Table 12) was less than 1000 nM. Consider `Cc1cccc(C)c1-c1cc2nc(n1)NS(=O)(=O)c1cccc(c1)C(=O)N(CC(=O)O)[C@H](CC(C)(C)C)CO2` [Compound 453], for which the EC50 (Table 12) was 3000 to 30000 nM. Further, the Emax under setting [1] is more than 60%. `CNC(=O)COc1ccc(CN2C(=O)c3cccc(c3)S(=O)(=O)Nc3nc(cc(-c4c(C)cccc4C)n3)OC[C@H]2CC(C)(C)C)cc1` [Compound 778]: under “Table 10”, the EC50 is less than 1000 nM. Moreover, the Emax under setting [2] is more than 60%. As to `CO[C@@H]1CCN(c2cccc(CN3C(=O)c4cccc(c4)S(=O)(=O)Nc4nc(cc(-c5c(C)cccc5C)n4)OC[C@H]3CC(C)(C)C)n2)C1` [Compound 624], the EC50 (Table 11) was less than 1000 nM. Besides, the Emax under setting [5] is more than 60%. Regarding `CCN(C)c1cccc(CN2C(=O)c3cccc(c3)S(=O)(=O)Nc3nc(cc(-c4c(C)cccc4C)n3)OC[C@H]2CC(C)(C)C)n1` [Compound 715], the EC50 (Table 11) was in the range of 1000 to 3000 nM. Under setting [5], the Emax is more than 60%. Consider `Cc1cccc(C)c1-c1cc2nc(n1)NS(=O)(=O)c1cccc(c1)C(=O)N(Cc1cccc(N3CCC34CCCC4)n1)[C@H](CC(C)(C)C)CO2` [Compound 565], for which the EC50 (Table 12) was less than 1000 nM. Moreover, the Emax under setting [1] was more than 60%.

On to `COc1cnc(CN2C(=O)c3cccc(c3)S(=O)(=O)Nc3nc(cc(-c4c(C)cccc4C)n3)OC[C@H]2CC(C)(C)C)nc1` [Compound 772], for which, where the note is “Table 10”, the EC50 is less than 1000 nM. Moreover, the Emax under setting [2] is more than 60%.

Consider `COCCN(C)c1cccc(CCN2C(=O)c3cccc(c3)S(=O)(=O)Nc3nc(cc(-c4c(C)cccc4C)n3)OC[C@H]2CC(C)(C)C)n1` [Compound 464], for which the half-maximal effective concentration (EC50) (Table 11) was less than 1000 nM. The Emax under setting [5] was more than 60%.
